In brackets after ≈: the same amount, converted by molar mass. Read-outs that look alike come from different tables or passages of the source.
Tests used:
Clostridium difficile = assay: Broth microdilution MIC against Clostridium difficile strains; assay type: cell-based; conditions: Clostridioides difficile
Description: The broth microdilution assay was utilized following the Clinical and Laboratory Standards Institute (CLSI) guidelines with slight modifications. Briefly, C. difficile strains were grown on anaerobic blood agar plates (Becton Dickinson, BD) and suspended in brain heart infusion supplemented broth (Brain heart infusion medium, BD, supplemented with yeast extract, L-cysteine, Vitamin K1 and Hemin, Sigma) to achieve a bacterial concentration of ~10^5 CFU/ml. The bacterial suspension was seeded in 96-well plates containing drugs/compounds, in duplicate, at the required concentration. Plates were then incubated at 37 °C anaerobically for 48 hours. MICs reported are the lowest concentration of each agent that inhibited the visual growth of bacteria.

E. faecalis = assay: Broth microdilution MIC against E. faecalis strains; assay type: cell-based; conditions: Enterococcus faecalis, read-out: Minimum inhibitory concentration
E. faecium = assay: Broth microdilution MIC against E. faecium strains; assay type: cell-based; conditions: Enterococcus faecium, read-out: Minimum inhibitory concentration
[1] = system: human ileocecal colorectal adenocarcinoma cell line (HRT-18); assay: Cytotoxicity, MTS assay, HRT-18 cells; assay type: cell-based; conditions: HRT-18 cells, 32 µg mL^−1, 2 hours, relative to DMSO
Description: Briefly, ~2 × 10^4 cells suspended in 100 µL of RPMI-1640 supplemented with 10% horse serum were seeded in a 96-well plate and incubated at 37 °C with 5% CO2. The cells were cultured for 24 hours until reaching ~90% confluency. The cells were further incubated with the aforementioned concentrations of the compounds for 2 hours. Afterwards, culture media were discarded and the cells in each well were washed with PBS and 100 µL of cell culture media were added prior to addition of the assay reagent MTS 3-(4,5-dimethylthiazol-2-yl)-5-(3-carboxymethoxyphenyl)-2-(4-sulfophenyl)-2H-tetrazolium) (Promega). The plates were incubated for 4 hours at 37 °C in a humidified 5% CO2 atmosphere. The absorbance was recorded at 490 nm and the corrected absorbance readings (actual absorbance readings for each treatment subtracted from background absorbance) were taken using a kinetic ELISA microplate reader (SpectraMax i3x, Molecular Devices, Sunnyvale, CA, USA). The quantity of viable cells after treatment with each compound was expressed as a percentage of the control, DMSO. Asterisk (*) denotes a significant difference from the DMSO-treated cells using 2-way analysis of variance (ANOVA) followed by Dunnett’s pairwise comparison.

[2] = Caco-2 bidirectional permeability assay; assay type: in vitro ADME, human; conditions: human, Caco-2, two hours
Description: (§1) The Caco-2 bidirectional permeability assay was conducted as described in previous reports[29],[30],[41],[42]. The Caco-2 cell line is similar to human enterocytes and expresses P-glycoprotein and other relevant metabolic enzymes that affect absorption of orally-administered xenobiotics across the intestinal mucosa[34],[43],[44]. Caco-2 cells were grown in tissue culture flasks, trypsinized (by rinsing cells with phosphate-buffered saline and then treating with trypsin-EDTA for 5–10 minutes at 37 °C with 5% CO2 until cells detached), suspended in Dulbecco’s Modified Eagle Medium with 10% fetal bovine serum, 1% nonessential amino acids and penicillin-streptomycin, and then seeded onto wells of a Millipore 96-well Caco-2 plate. Cells were cultured at 37 °C with 5% CO2 until confluent (approximately three weeks) and media was changed at relevant time points. For Apical to Basolateral (A → B) permeability, the test article was added to the apical (A) compartment and the amount of permeation (Papp, as calculated below) to the basolateral (B) compartment was determined; for Basolateral to Apical (B → A) permeability, the test article was added to the B compartment and the amount of permeation to the A compartment was determined. […] Caco-2 cells were incubated with these buffers for two hours, and the receiver side buffer was removed for analysis by LC/MS/MS. To verify the tight junctions and integrity of Caco-2 cell monolayers, aliquots of the cell buffers were analyzed by fluorescence (Lucifer yellow transport ≤ 2%). Any deviations from control values are reported. Data are expressed as permeability (Papp) = (dQ/dt)/(C0A) where dQ/dt is the rate of permeation, C0 is the initial concentration of test agent, and A is the area of the monolayer.

Caco-2 monolayer = assay: Caco-2 bidirectional permeability assay; assay type: in vitro ADME, human; conditions: Caco-2 bidirectional
Description: as §1

[3] = system: vancomycin-resistant and vancomycin-susceptible strains of Enterococcus; assay: Broth microdilution MIC against Enterococcus strains (E. faecalis and E. faecium, summary in text); assay type: cell-based; conditions: all E. faecalis and E. faecium strains tested, vancomycin-resistant and -sensitive
human erythrocytes = system: human erythrocytes; set-up: method as in PMID 24479371; conditions: concentration at which 50% of human erythrocytes are lysed; cited from earlier work

**Q.** Which results are given for `CCCCCCCCCCN(Cc1cccc2ccccc12)C(=O)[C@@H](N)CCCCN` [NCK-10]?
**A.** MIC (Clostridium difficile; C. difficile Isolate 1 (NR-13427), read-out: Minimum inhibitory concentration): 2 µg/mL (≈ 4.7 µM); MIC (Clostridium difficile; C. difficile Isolate 2 (NR-13428), read-out: Minimum inhibitory concentration): 1 µg/mL (≈ 2.35 µM); MIC (Clostridium difficile; C. difficile Isolate 4 (NR-13430), read-out: Minimum inhibitory concentration): 2 µg/mL (≈ 4.7 µM); MIC (Clostridium difficile; C. difficile Isolate 6 (NR-13432), read-out: Minimum inhibitory concentration): 1 µg/mL (≈ 2.35 µM); MIC (Clostridium difficile; C. difficile Isolate 9 (NR-13435), read-out: Minimum inhibitory concentration): 1 µg/mL (≈ 2.35 µM); MIC (Clostridium difficile; C. difficile Isolate 10 (NR-13436), read-out: Minimum inhibitory concentration): 1 µg/mL (≈ 2.35 µM); MIC (Clostridium difficile; C. difficile P2 (NR-32883), read-out: Minimum inhibitory concentration): 1 µg/mL (≈ 2.35 µM); MIC (Clostridium difficile; C. difficile P4 (NR-32889), read-out: Minimum inhibitory concentration): 2 µg/mL (≈ 4.7 µM); MIC (Clostridium difficile; C. difficile P8 (NR-32888), read-out: Minimum inhibitory concentration): 1 µg/mL (≈ 2.35 µM); MIC (Clostridium difficile; C. difficile P13 (NR-32891), read-out: Minimum inhibitory concentration): 2 µg/mL (≈ 4.7 µM); MIC (Clostridium difficile; C. difficile P20 (NR-32896), read-out: Minimum inhibitory concentration): 1 µg/mL (≈ 2.35 µM); MIC (Clostridium difficile; C. difficile P21 (NR-32897), read-out: Minimum inhibitory concentration): 1 µg/mL (≈ 2.35 µM); MIC (Clostridium difficile; C. difficile P29 (NR-32903), read-out: Minimum inhibitory concentration): 1 µg/mL (≈ 2.35 µM); MIC (Clostridium difficile; C. difficile strains P8, P13 and Isolate 10): 1 to 2 µg/mL (≈ 2.35 to 4.7 µM); MIC (Clostridium difficile; across all tested strains of C. difficile): 0.5 to 2 µg/mL (≈ 1.17 to 4.7 µM); MIC (Clostridium difficile; most strains of C. difficile tested, read-out: MIC): ≤ 1 µg/mL; MIC (Clostridium difficile; read-out: Minimum inhibitory concentration, C. difficile Isolate 5 (NR-13431)): ≤ 0.5 µg/mL; MIC (Clostridium difficile; read-out: Minimum inhibitory concentration, C. difficile P15 (NR-32892)): ≤ 0.5 µg/mL; MIC (Clostridium difficile; the rest of the C. difficile strains): 1 µg/mL (≈ 2.35 µM); MIC (E. faecalis; E. faecalis B3196): 2 µg/mL (≈ 4.7 µM); MIC (E. faecalis; E. faecalis B3286): 2 µg/mL (≈ 4.7 µM); MIC (E. faecalis; E. faecalis B3336): 2 µg/mL (≈ 4.7 µM); MIC (E. faecalis; E. faecalis SF24397): 2 µg/mL (≈ 4.7 µM); MIC (E. faecalis; E. faecalis SF28073 (vancomycin-resistant)): 2 µg/mL (≈ 4.7 µM); MIC (E. faecium; E. faecium E417 (vancomycin-resistant)): < 1 µg/mL; MIC (E. faecium; E. faecium E1071): 2 µg/mL (≈ 4.7 µM); MIC (E. faecium; E. faecium UAA714): 2 µg/mL (≈ 4.7 µM); cells survived [1]: 60%; Papp A→B at 2 h ([2]; apical (pH 6.5) to basolateral (pH 7.4)): < 0.01 ×10⁻⁶ cm/s; Papp B→A at 2 h ([2]; basolateral to apical): 3.26 ×10⁻⁶ cm/s; Notes (permeability class) (Caco-2 monolayer): Limited permeability; MIC [3]: ≤ 2 µg/mL; hemolytic concentration 50 (HC50) (human erythrocytes): 95 µg/mL

Source: PMC7101335, “Aryl-alkyl-lysines: Novel agents for treatment of C. difficile infection” (Scientific Reports, 2020)
